Assay results taken from US7306804B2 (priority 1998, dated 2007).
Entries after “also recorded” stand apart in the source; their conditions may differ. Where two headings read alike, the source gives them in different places.

Columns and labels:
[1] = system: anti-peptide antibodies in serum; assay type: binding, chimpanzee; set-up: key: +, Positive (Titer > 1:100); −, Negative (Titer < 1:100)
[2] = system: PBMCs from normal and HIV-positive individuals; assay type: cell-based, human; settings: for number of HIV+ individuals with positive proliferative responses: 17 HIV+ individuals tested
[3] = system: PBMCs from control and HIV-1 infected chimpanzees; assay type: cell-based, chimpanzee; settings: for number of HIV-infected chimpanzees with positive proliferative responses (SI>2.0): nine HIV-infected chimpanzees tested
[4] = system: peptide-pulsed autologous EBV-transformed B cells (B-LCL); assay type: cell-based, human
PBMCs = settings: cited from earlier work
[5] = system: HIV envelope protein gp160; settings: cited from earlier work; for T-cell proliferative response to immunizing peptide and HIV Env protein gp160 / antibodies recognizing recombinant gp160: immunized mice; for T-cell proliferation responses: two F1 hybrid mouse strains (B6C3 F1 and A.SW×Balb/c F1)
[6] = system: anti-peptide antibodies in serum; assay type: binding, human; set-up: key to Anti-peptide antibody response: +, Positive (titer above control); −, Negative (titer below control)

In the case of SVITQACSKVSFE [Peptide 113], the Anti-peptide antibody response [1] is reported as “−”, the “number of HIV+ individuals with positive proliferative responses” value [2] is reported as “five” and the T-cell proliferative response ([2]; HIV-positive patient MSf) is reported as “− (−, Negative (SI < 2.0))”. The T-cell proliferative response ([2]; HIV-positive patient MSm) was “− (−, Negative (SI < 2.0))”, the T-cell proliferative response ([2]; HIV-positive patient eight) was “− (−, Negative (SI < 2.0))” and the T-cell proliferative response ([2]; HIV-positive patient eleven) was “− (−, Negative (SI < 2.0))”. The T-cell proliferative response ([2]; HIV-positive patient fifteen) was “+ (+, Positive (Stimulation Index [SI] > 2.0))”, the T-cell proliferative response ([2]; HIV-positive patient five) was “− (−, Negative (SI < 2.0))” and the T-cell proliferative response ([2]; HIV-positive patient four) was “− (−, Negative (SI < 2.0))”. The T-cell proliferative response ([2]; HIV-positive patient fourteen) was “+ (+, Positive (Stimulation Index [SI] > 2.0))”, the T-cell proliferative response ([2]; HIV-positive patient nine) was “− (−, Negative (SI < 2.0))” and the T-cell proliferative response ([2]; HIV-positive patient one) was “− (−, Negative (SI < 2.0))”. For the same sequence, the T-cell proliferative response ([2]; HIV-positive patient seven) was “+ (+, Positive (Stimulation Index [SI] > 2.0))”, the T-cell proliferative response ([2]; HIV-positive patient six) was “+ (+, Positive (Stimulation Index [SI] > 2.0))” and the T-cell proliferative response ([2]; HIV-positive patient ten) was “− (−, Negative (SI < 2.0))”. The T-cell proliferative response ([2]; HIV-positive patient thirteen) was “+ (+, Positive (Stimulation Index [SI] > 2.0))”, the T-cell proliferative response ([2]; HIV-positive patient three) was “− (−, Negative (SI < 2.0))” and the T-cell proliferative response ([2]; HIV-positive patient twelve) was “− (−, Negative (SI < 2.0))”. For the same sequence, the T-cell proliferative response ([2]; HIV-positive patient two) was “− (−, Negative (SI < 2.0))”, the T-cell proliferative response ([2]; Normal-1 (HIV-seronegative)) was “− (−, Negative (SI < 2.0))” and the T-cell proliferative response ([2]; Normal-2 (HIV-seronegative)) was “− (−, Negative (SI < 2.0))”. The T-cell proliferative response ([3]; chimpanzee 40, control normal) was “− (−, Negative (SI < 2.0))”, the T-cell proliferative response ([3]; chimpanzee 62, HIV-infected) was “+ (+, Positive (Stimulation Index [SI] > 2.0))” and the T-cell proliferative response ([3]; chimpanzee 69, HIV-infected) was “+ (+, Positive (Stimulation Index [SI] > 2.0))”. The T-cell proliferative response ([3]; chimpanzee 73, control normal) was “− (−, Negative (SI < 2.0))”, the T-cell proliferative response ([3]; chimpanzee 80, HIV-infected) was “+ (+, Positive (Stimulation Index [SI] > 2.0))” and the T-cell proliferative response ([3]; chimpanzee 99, HIV-infected) was “− (−, Negative (SI < 2.0))”. For the same sequence, the T-cell proliferative response ([3]; chimpanzee 100, HIV-infected) was “+ (+, Positive (Stimulation Index [SI] > 2.0))”, the T-cell proliferative response ([3]; chimpanzee 139, HIV-infected) was “− (−, Negative (SI < 2.0))” and the T-cell proliferative response ([3]; chimpanzee 175, HIV-infected) was “+ (+, Positive (Stimulation Index [SI] > 2.0))”. The T-cell proliferative response ([3]; chimpanzee 247, HIV-infected) was “− (−, Negative (SI < 2.0))”, the T-cell proliferative response ([3]; chimpanzee 310, HIV-infected) was “− (−, Negative (SI < 2.0))” and the “number of HIV-infected chimpanzees with positive proliferative responses (SI>2.0)” value [3] was “five”. For the same sequence, the “% Specific lysis at various E:T ratios 12.5:1” value [4] was 0%, the “% Specific lysis at various E:T ratios 25:1” value [4] was 0% and the “% Specific lysis at various E:T ratios 50:1” value [4] was 0%. The “% Specific lysis at various E:T ratios 100:1” value [4] was 0%, the “CTL activity against peptide-pulsed autologous B-LCLs” value [4] was “did not serve as a CTL epitope” and the “proliferative response of PBMCs” value (PBMCs; monkey, in vivo) was “weak responses”. The “T-cell proliferative response to immunizing peptide and HIV Env protein gp160” value [5] was “induced a T-cell response against both the immunizing peptide and the HIV Env protein; also recorded: induced proliferative responses to both the immunizing peptide”, the “antibodies recognizing recombinant gp160” value [5] was “did not produce antibodies that could recognize recombinant gp160” and the T-cell proliferation responses [5] was “relatively good T-cell proliferation responses”. For the same sequence, the Anti-peptide antibody response [6] was “+ and −” and the “number of HIV+ individuals with positive antibody titers (<1:1280)” value [6] was “one”.

For VYYGVPVWKEA [Peptide 104], the Anti-peptide antibody response [1] was “−”, the Anti-peptide antibody response ([1]; chimpanzee 40, control normal) was “−” and the Anti-peptide antibody response ([1]; chimpanzee 73, control normal) was “−”. For the same sequence, the “number of HIV+ individuals with positive proliferative responses” value [2] was “eight of the 17”, the T-cell proliferative response ([2]; HIV-positive patient MSf) was “− (−, Negative (SI < 2.0))” and the T-cell proliferative response ([2]; HIV-positive patient MSm) was “− (−, Negative (SI < 2.0))”. The T-cell proliferative response ([2]; HIV-positive patient eight) was “− (−, Negative (SI < 2.0))”, the T-cell proliferative response ([2]; HIV-positive patient eleven) was “+ (+, Positive (Stimulation Index [SI] > 2.0))” and the T-cell proliferative response ([2]; HIV-positive patient fifteen) was “+ (+, Positive (Stimulation Index [SI] > 2.0))”. The T-cell proliferative response ([2]; HIV-positive patient five) was “− (−, Negative (SI < 2.0))”, the T-cell proliferative response ([2]; HIV-positive patient four) was “− (−, Negative (SI < 2.0))” and the T-cell proliferative response ([2]; HIV-positive patient fourteen) was “− (−, Negative (SI < 2.0))”. The T-cell proliferative response ([2]; HIV-positive patient nine) was “+ (+, Positive (Stimulation Index [SI] > 2.0))”, the T-cell proliferative response ([2]; HIV-positive patient one) was “− (−, Negative (SI < 2.0))” and the T-cell proliferative response ([2]; HIV-positive patient seven) was “− (−, Negative (SI < 2.0))”. For the same sequence, the T-cell proliferative response ([2]; HIV-positive patient six) was “+ (+, Positive (Stimulation Index [SI] > 2.0))”, the T-cell proliferative response ([2]; HIV-positive patient ten) was “− (−, Negative (SI < 2.0))” and the T-cell proliferative response ([2]; HIV-positive patient thirteen) was “+ (+, Positive (Stimulation Index [SI] > 2.0))”. The T-cell proliferative response ([2]; HIV-positive patient three) was “+ (+, Positive (Stimulation Index [SI] > 2.0))”, the T-cell proliferative response ([2]; HIV-positive patient twelve) was “+ (+, Positive (Stimulation Index [SI] > 2.0))” and the T-cell proliferative response ([2]; HIV-positive patient two) was “+ (+, Positive (Stimulation Index [SI] > 2.0))”. For the same sequence, the T-cell proliferative response ([2]; Normal-1 (HIV-seronegative)) was “− (−, Negative (SI < 2.0))”, the T-cell proliferative response ([2]; Normal-2 (HIV-seronegative)) was “− (−, Negative (SI < 2.0))” and the SI values ([2]; in six of the eight responding HIV+ individuals) was “above 4.1”. The T-cell proliferative response ([3]; chimpanzee 40, control normal) was “− (−, Negative (SI < 2.0))”, the T-cell proliferative response ([3]; chimpanzee 62, HIV-infected) was “+ (+, Positive (Stimulation Index [SI] > 2.0))” and the T-cell proliferative response ([3]; chimpanzee 69, HIV-infected) was “+ (+, Positive (Stimulation Index [SI] > 2.0))”. The T-cell proliferative response ([3]; chimpanzee 73, control normal) was “− (−, Negative (SI < 2.0))”, the T-cell proliferative response ([3]; chimpanzee 80, HIV-infected) was “+ (+, Positive (Stimulation Index [SI] > 2.0))” and the T-cell proliferative response ([3]; chimpanzee 99, HIV-infected) was “+ (+, Positive (Stimulation Index [SI] > 2.0))”. For the same sequence, the T-cell proliferative response ([3]; chimpanzee 100, HIV-infected) was “− (−, Negative (SI < 2.0))”, the T-cell proliferative response ([3]; chimpanzee 139, HIV-infected) was “+ (+, Positive (Stimulation Index [SI] > 2.0))” and the T-cell proliferative response ([3]; chimpanzee 175, HIV-infected) was “+ (+, Positive (Stimulation Index [SI] > 2.0))”. For the same sequence, the T-cell proliferative response ([3]; chimpanzee 247, HIV-infected) was “− (−, Negative (SI < 2.0))”, the T-cell proliferative response ([3]; chimpanzee 310, HIV-infected) was “+ (+, Positive (Stimulation Index [SI] > 2.0))” and the SI values ([3]; in three HIV-infected chimpanzees) was “above 5.1”. For the same sequence, the “number of HIV-infected chimpanzees with positive proliferative responses (SI>2.0)” value [3] was “seven of the nine”, the “% Specific lysis at various E:T ratios 12.5:1” value ([4]; E:T 12.5:1, PBMCs from patient restimulated 7 days in phytohemagglutinin medium, peptide-pulsed autologous B-LCL) was 1.5% and the “% Specific lysis at various E:T ratios 25:1” value ([4]; E:T 25:1, PBMCs from patient restimulated 7 days in phytohemagglutinin medium, peptide-pulsed autologous B-LCL) was 3.7%. For the same sequence, the “% Specific lysis at various E:T ratios 50:1” value ([4]; E:T 50:1, PBMCs from patient restimulated 7 days in phytohemagglutinin medium, peptide-pulsed autologous B-LCL) was 9.3%, the “% Specific lysis at various E:T ratios 100:1” value ([4]; E:T 100:1, PBMCs from patient restimulated 7 days in phytohemagglutinin medium, peptide-pulsed autologous B-LCL) was 12.2% and the “CTL activity against peptide-pulsed autologous B-LCLs” value ([4]; PBMCs from LTNP HD restimulated 7 days with PHA) was “significant CTL activity”. For the same sequence, the “specific lysis of peptide-pulsed target cells” value ([4]; […], compared with restimulated PBMCs) was “also observed”, the “proliferative response of PBMCs” value (PBMCs; three monkeys immunized with peptide cocktail) was “good response” and the “T-cell proliferative response to immunizing peptide and HIV Env protein gp160” value [5] was “induced a T-cell response against both the immunizing peptide and the HIV Env protein; also recorded: induced proliferative responses to both the immunizing peptide”. The “antibodies recognizing recombinant gp160” value [5] was “did not produce antibodies that could recognize recombinant gp160”, the T-cell proliferation responses [5] was “relatively good T-cell proliferation responses” and the “number of HIV+ individuals with positive antibody titers (<1:1280)” value [6] was “three”. The Anti-peptide antibody response ([6]; HIV-positive patient MSf) was “−”, the Anti-peptide antibody response ([6]; HIV-positive patient MSm) was “−” and the Anti-peptide antibody response ([6]; HIV-positive patient eight) was “−”. The Anti-peptide antibody response ([6]; HIV-positive patient eleven) was “−”, the Anti-peptide antibody response ([6]; HIV-positive patient fifteen) was “−” and the Anti-peptide antibody response ([6]; HIV-positive patient five) was “−”. For the same sequence, the Anti-peptide antibody response ([6]; HIV-positive patient four) was “+”, the Anti-peptide antibody response ([6]; HIV-positive patient fourteen) was “−” and the Anti-peptide antibody response ([6]; HIV-positive patient nine) was “−”. The Anti-peptide antibody response ([6]; HIV-positive patient one) was “−”, the Anti-peptide antibody response ([6]; HIV-positive patient seven) was “−” and the Anti-peptide antibody response ([6]; HIV-positive patient six) was “+”. The Anti-peptide antibody response ([6]; HIV-positive patient ten) was “−”, the Anti-peptide antibody response ([6]; HIV-positive patient thirteen) was “−” and the Anti-peptide antibody response ([6]; HIV-positive patient three) was “−”. The Anti-peptide antibody response ([6]; HIV-positive patient twelve) was “−”, the Anti-peptide antibody response ([6]; HIV-positive patient two) was “+” and the Anti-peptide antibody response ([6]; Normal-1 (HIV-seronegative)) was “−”. The Anti-peptide antibody response ([6]; Normal-2 (HIV-seronegative)) was “−”.

In the case of YLRDQQLLGIWGC [Peptide 61], the “% Specific lysis at various E:T ratios 12.5:1” value [4] is reported as 4.0%, the “% Specific lysis at various E:T ratios 25:1” value [4] is reported as 4.0% and the “% Specific lysis at various E:T ratios 50:1” value [4] is reported as 14.5%. For the same sequence, the “% Specific lysis at various E:T ratios 100:1” value [4] was 15.0%, the “CTL activity against peptide-pulsed autologous B-LCLs” value [4] was “significant CTL activity” and the “specific lysis of peptide-pulsed target cells” value [4] was “also observed”. The “proliferative response of PBMCs” value (PBMCs; monkey, in vivo) was “PMBCs from two of the monkeys showed good proliferative responses”, the “T-cell proliferative response to immunizing peptide and HIV Env protein gp160” value [5] was “induced a T-cell response against both the immunizing peptide and the HIV Env protein” and the “antibodies recognizing recombinant gp160” value [5] was “did not produce antibodies that could recognize recombinant gp160”. The T-cell proliferation responses [5] was “relatively good T-cell proliferation responses”.
